Measured values as given in the supplement of paper PMC4862054.

Legend:
Experiment in all cases: normalised viability (% of control), CellTiter-Blue; higher = more viable cells (about 100 = DMSO control)
Conditions in all cases: incubation time: 72 h
[1] = system: CAL-51
Procedure: (§1)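 DSRT, CellTiter-Blue viability, 72 h incubation. Signal is normalised to DMSO and benzethonium chloride controls. Value is the normalised response at dose 8.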

[2] = system: CAL-148
Procedure: as §1

[3] = system: MDA-MB-453
Procedure: as §1

[4] = system: CAL-85-1
Procedure: as §1

[5] = system: DU-4475
Procedure: as §1

[6] = system: HDQ-P1
Procedure: as §1

[7] = system: CAL-51; remark: listed apart in the source
Procedure: (§2)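 DSRT, CellTiter-Blue viability, 72 h incubation. Signal is normalised to DMSO and benzethonium chloride controls. Value is the normalised response at dose 6.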

[8] = system: CAL-148; remark: listed apart in the source
Procedure: as §2

[9] = system: MDA-MB-453; remark: listed apart in the source
Procedure: as §2

[10] = system: CAL-85-1; remark: listed apart in the source
Procedure: as §2

[11] = system: DU-4475; remark: listed apart in the source
Procedure: as §2

[12] = system: HDQ-P1; remark: listed apart in the source
Procedure: as §2

[13] = system: CAL-51; remark: listed apart in the source
Procedure: (§3)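 DSRT, CellTiter-Blue viability, 72 h incubation. Signal is normalised to DMSO and benzethonium chloride controls. Value is the normalised response at dose 7.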

[14] = system: CAL-148; remark: listed apart in the source
Procedure: as §3

[15] = system: MDA-MB-453; remark: listed apart in the source
Procedure: as §3

[16] = system: CAL-85-1; remark: listed apart in the source
Procedure: as §3

[17] = system: DU-4475; remark: listed apart in the source
Procedure: as §3

[18] = system: HDQ-P1; remark: listed apart in the source
Procedure: as §3

Row | SMILES | normalised viability [1] [%] | normalised viability [2] [%] | normalised viability [3] [%] | normalised viability [4] [%] | normalised viability [5] [%] | normalised viability [6] [%] | normalised viability [7] [%] | normalised viability [8] [%] | normalised viability [9] [%] | normalised viability [10] [%] | normalised viability [11] [%] | normalised viability [12] [%] | other results
1 | Nc1ccn([C@@H]2O[C@H](CO)[C@@H](O)[C@@H]2O)c(=O)n1 [Cytarabine] (3000 nM) | 16.4 | 34.8 | 62.5 | 70.1 | 26.1 | 86.7 |  |  |  |  |  |  | 
2 | CN(C)C/C=C/C(=O)Nc1cc2c(Nc3ccc(F)c(Cl)c3)ncnc2cc1O[C@H]1CCOC1 [Afatinib] (3000 nM) | 86.2 | 58.2 | 30 | 39.6 | 92.7 | 19.4 |  |  |  |  |  |  | 
3 | CC[C@]1(O)C[C@@H]2CN(CCc3c([nH]c4ccccc34)[C@@](C(=O)OC)(c3cc4c(cc3OC)N(C)[C@H]3[C@@](O)(C(=O)OC)[C@H](OC(C)=O)[C@]5(CC)C=CCN6CC[C@]43[C@@H]65)C2)C1 [Vinblastine] (300 nM) | 16.9 | 17.7 | 24.4 | 30.8 | 20.9 | 33.5 |  |  |  |  |  |  | 
4 | S=c1[nH]cnc2nc[nH]c12 [Mercaptopurine] (3000 nM) | 90.1 | 90.8 | 115 | 83.3 | 114 | 88.9 |  |  |  |  |  |  | 
5 | N#CC[C@H](C1CCCC1)n1cc(-c2ncnc3[nH]ccc23)cn1 [Ruxolitinib] (3000 nM) | 105 | 87.7 | 94 | 114 | 114 | 105 |  |  |  |  |  |  | 
6 | COc1cc(Nc2ncc3c(n2)-c2ccc(Cl)cc2C(c2c(F)cccc2OC)=NC3)ccc1C(=O)O [MLN8237] (3000 nM) | 26.2 | 28.8 | 60.1 | 69.2 | 18.3 | 58 |  |  |  |  |  |  | 
7 | CS(=O)(=O)c1ccc(C(=O)Nc2ccc(Cl)c(-c3ccccn3)c2)c(Cl)c1 [Vismodegib] (300 nM) |  |  |  |  |  |  | 106 | 81.3 | 102 | 95.7 | 102 | 44 | 
8 | CN1CC[C@H](c2c(O)cc(O)c3c(=O)cc(-c4ccccc4Cl)oc23)[C@H](O)C1 [Alvocidib] (3000 nM) | 4.88 | 14.4 | 7.79 | 3.02 | 1.28 | 13.7 |  |  |  |  |  |  | 
9 | COc1cc(Nc2ncc3c(n2)-c2ccc(Cl)cc2C(c2c(F)cccc2OC)=NC3)ccc1C(=O)O [MLN8237] (1000 nM) |  |  |  |  |  |  |  |  |  |  |  |  | normalised viability [13]: 27.2%; normalised viability [14]: 36.9%; normalised viability [15]: 68.9%; normalised viability [16]: 69.1%; normalised viability [17]: 16.5%; normalised viability [18]: 54.2%
10 | C=CCNC1=C2C[C@@H](C)C[C@H](OC)[C@H](O)[C@@H](C)/C=C(\C)[C@H](OC(N)=O)[C@@H](OC)/C=C\C=C(/C)C(=O)NC(=CC1=O)C2=O [Tanespimycin] (300 nM) |  |  |  |  |  |  | 48.2 | 19.7 | 8.64 | 47.2 | 1.35 | 28.8 | 
11 | COc1cc(Nc2ncc3c(n2)-c2ccc(Cl)cc2C(c2c(F)cccc2OC)=NC3)ccc1C(=O)O [MLN8237] (300 nM) |  |  |  |  |  |  | 35.9 | 49.2 | 64.7 | 44 | 9.79 | 44.1 | 
12 | N#CC[C@H](C1CCCC1)n1cc(-c2ncnc3[nH]ccc23)cn1 [Ruxolitinib] (300 nM) |  |  |  |  |  |  | 86.7 | 95.1 | 78.4 | 92 | 114 | 73.3 | 
13 | CN1CCC(COc2cnc(-c3cccc(Cn4nc(-c5cccc(C#N)c5)ccc4=O)c3)nc2)CC1 (300 nM) |  |  |  |  |  |  | 101 | 86.9 | 94.5 | 93.4 | 105 | 81.3 | 
14 | Cc1ccc(F)c(NC(=O)Nc2ccc(-c3cccc4[nH]nc(N)c34)cc2)c1 [Linifanib] (30 nM) |  |  |  |  |  |  | 107 | 94.1 | 96.4 | 118 | 116 | 96.2 | 
15 | OC[C@H]1O[C@@H](n2cnc3c2N=CNC[C@H]3O)C[C@@H]1O [Pentostatin] (3000 nM) | 95.8 | 112 | 96.8 | 96.4 | 90.9 | 96.8 |  |  |  |  |  |  | 
16 | OC[C@H]1O[C@@H](n2cnc3c2N=CNC[C@H]3O)C[C@@H]1O [Pentostatin] (300 nM) |  |  |  |  |  |  | 94.3 | 111 | 108 | 97.8 | 93.1 | 82.3 | 

Row | SMILES | normalised viability [1] [%] | normalised viability [2] [%] | normalised viability [3] [%] | normalised viability [4] [%] | normalised viability [5] [%] | normalised viability [6] [%] | normalised viability [7] [%] | normalised viability [8] [%] | normalised viability [9] [%] | normalised viability [10] [%] | normalised viability [11] [%] | normalised viability [12] [%] | other results
17 | Nc1nc(Cl)nc2c1ncn2[C@H]1C[C@H](O)[C@@H](CO)O1 [Cladribine] (300 nM) | 104 | 103 | 96.9 | 92.9 | 102 | 96.3 |  |  |  |  |  |  | 
18 | CO[C@H]1C[C@@H]2CC[C@@H](C)[C@@](O)(O2)C(=O)C(=O)N2CCCC[C@H]2C(=O)O[C@H]([C@H](C)C[C@@H]2CC[C@@H](OC(=O)C(C)(CO)CO)[C@H](OC)C2)CC(=O)[C@H](C)/C=C(\C)[C@@H](O)[C@@H](OC)C(=O)[C@H](C)C[C@H](C)/C=C/C=C/C=C/1C [Temsirolimus] (30 nM) |  |  |  |  |  |  | 41.8 | 40.4 | 30.1 | 56.3 | 54.4 | 58.3 | 
19 | COc1cccc2c1C(=O)c1c(O)c3c(c(O)c1C2=O)C[C@@](O)(C(=O)CO)C[C@@H]3O[C@H]1C[C@H](N)[C@H](O)[C@H](C)O1 [Doxorubicin] (30 nM) |  |  |  |  |  |  | 87.1 | 58.7 | 100 | 92.2 | 55 | 75.2 | 
20 | COc1cccc2cc(-c3nc([C@H]4CC[C@H](C(=O)O)CC4)n4ncnc(N)c34)[nH]c12 [OSI-027] (300 nM) |  |  |  |  |  |  | 74.3 | 76.1 | 66.1 | 75.5 | 82.5 | 37.9 | 
21 | CS(=O)(=O)c1ccc(C(=O)Nc2ccc(Cl)c(-c3ccccn3)c2)c(Cl)c1 [Vismodegib] (3000 nM) | 108 | 83.3 | 95 | 96.4 | 112 | 103 |  |  |  |  |  |  | 
22 | Nc1nc(Cl)nc2c1ncn2[C@H]1C[C@H](O)[C@@H](CO)O1 [Cladribine] (30 nM) |  |  |  |  |  |  | 109 | 108 | 107 | 102 | 101 | 90.2 | 
23 | CN1CC[C@H](c2c(O)cc(O)c3c(=O)cc(-c4ccccc4Cl)oc23)[C@H](O)C1 [Alvocidib] (300 nM) |  |  |  |  |  |  | 31.6 | 17.5 | 32.7 | 17.3 | 1.07 | 24.5 | 
24 | C=CC[C@@H]1/C=C(\C)C[C@H](C)C[C@H](OC)[C@H]2O[C@@](O)(C(=O)C(=O)N3CCCC[C@H]3C(=O)O[C@H](/C(C)=C/[C@@H]3CC[C@@H](O)[C@H](OC)C3)[C@H](C)[C@@H](O)CC1=O)[C@H](C)C[C@@H]2OC [Tacrolimus] (3000 nM) | 99.2 | 99.2 | 102 | 100 | 121 | 116 |  |  |  |  |  |  | 
25 | COc1cccc2cc(-c3nc([C@H]4CC[C@H](C(=O)O)CC4)n4ncnc(N)c34)[nH]c12 [OSI-027] (3000 nM) | 42.9 | 46.4 | 19.9 | 32.9 | 69.1 | 31.1 |  |  |  |  |  |  | 
26 | C[C@]1(c2nc3c(C(N)=O)cccc3[nH]2)CCCN1 [Veliparib] (3000 nM) | 108 | 91.8 | 109 | 92.2 | 86.2 | 82.9 |  |  |  |  |  |  | 
27 | CN1CCC(COc2cnc(-c3cccc(Cn4nc(-c5cccc(C#N)c5)ccc4=O)c3)nc2)CC1 (3000 nM) | 84.4 | 79.8 | 63.8 | 87.3 | 108 | 85.4 |  |  |  |  |  |  | 
28 | C=CCNC1=C2C[C@@H](C)C[C@H](OC)[C@H](O)[C@@H](C)/C=C(\C)[C@H](OC(N)=O)[C@@H](OC)/C=C\C=C(/C)C(=O)NC(=CC1=O)C2=O [Tanespimycin] (3000 nM) | 11.3 | 17.2 | 8.29 | 23 | 0.57 | 24.7 |  |  |  |  |  |  | 
29 | CO[C@H]1C[C@@H]2CC[C@@H](C)[C@@](O)(O2)C(=O)C(=O)N2CCCC[C@H]2C(=O)O[C@H]([C@H](C)C[C@@H]2CC[C@@H](OC(=O)C(C)(CO)CO)[C@H](OC)C2)CC(=O)[C@H](C)/C=C(\C)[C@@H](O)[C@@H](OC)C(=O)[C@H](C)C[C@H](C)/C=C/C=C/C=C/1C [Temsirolimus] (300 nM) | 37.2 | 33.7 | 26.2 | 57.4 | 50.3 | 69.1 |  |  |  |  |  |  | 
30 | Clc1ccc(C(c2ccccc2Cl)C(Cl)Cl)cc1 (configuration not stated) [Mitotane] (3000 nM) | 111 | 103 | 113 | 94.6 | 96.2 | 91.7 |  |  |  |  |  |  | 
31 | Cc1c2oc3c(C)ccc(C(=O)N[C@@H]4C(=O)N[C@H](C(C)C)C(=O)N5CCC[C@H]5C(=O)N(C)CC(=O)N(C)[C@@H](C(C)C)C(=O)O[C@@H]4C)c3nc-2c(C(=O)N[C@@H]2C(=O)N[C@H](C(C)C)C(=O)N3CCC[C@H]3C(=O)N(C)CC(=O)N(C)[C@@H](C(C)C)C(=O)O[C@@H]2C)c(N)c1=O [Dactinomycin] (300 nM) | 5.05 | 11.4 | 6.05 | 2.52 | 1.26 | 9.3 |  |  |  |  |  |  | 
32 | COc1cccc2c1C(=O)c1c(O)c3c(c(O)c1C2=O)C[C@@](O)(C(=O)CO)C[C@@H]3O[C@H]1C[C@H](N)[C@H](O)[C@H](C)O1 [Doxorubicin] (300 nM) | 33.5 | 31.9 | 70.6 | 54 | 39.4 | 58 |  |  |  |  |  |  | 
